This is an account of results in patent US5935597A, “Drug delivery devices and methods for treatment of viral and microbial infections and wasting syndromes” (Cryopreservation Technologies CC, priority 1995, dated 1999).

Data set [1] is described as follows: Example 8 pilot study: peak plasma DMF level (GC/MS). The class given is in vivo. To be noted: human, topical or ocular. The protocol: (§1) A pilot study was conducted to evaluate the efficacy of transdermal DMF in the treatment of patients infected with HIV. Informed consent was obtained from each patient. Seropositive status was verified by Western blot using a commercial kit for detecting antibodies to p24 (Abbott Diagnostics) and the presence of HIV-1 was documented by quantitative PCR using a commercial kit (Roche Amplicor).
Operational parameters were as follows: GC temperature program: 60° C. for 1 min. followed by a temperature gradient of 9.4° C./min. for 20 min. MS ionization method: electron impact; mass range: 40-80 mass units; 1 scan/sec; peak threshold: 3 counts/sec; background mass: 69 mass units. A stock solution of dimethylacetamide was used as an internal standard. All samples were extracted with an organic solvent containing the internal standard, allowed to precipitate for 30 min. in a refrigerator, and centrifuged at 3000×g for 5 min. before transfer to GC vials for injection.
(§2) Dermal patches 9 cm in diameter were used within 12 hours of manufacture. […] The patches were visually inspected to verify the absence of leakage and were weighed on an analytical balance to verify less than 10% deviation from a total mass of 8.153 g. The patches were applied to the skin of the forearm and secured with Elastoplast™ bandages. Either one or two patches were used for the initial dose, as determined from the predicted skin transfer rate of 9.4 mg/cm^2 /hr and the patient's body weight.
A staged dose of DMF was used, with two-hourly blood and urine sampling to determine peak plasma DMF levels. […] Initial evaluation included daily determination of: […]

A short description of data set [2]: Example 8 pilot study: adverse effects and liver enzymes. The class given is in vivo, human. The protocol: as §1, §2
A staged dose of DMF was used, with two-hourly blood and urine sampling to determine peak plasma DMF levels. […] Initial evaluation included daily determination of:
b) serum urea, creatinine, glucose, sodium, potassium, ALT, AST, alkaline phosphatase and total bilirubin;

Data set [3] can be described thus: Absorption of liquid DMF through human skin. To be noted: two patches of diameter 9 cm, 127 cm^2 skin. Format: in vivo. On the procedure: For transdermal administration of a polar compound, the rate of absorption is determined by the skin of the subject. […] Accordingly, the desired rate of absorption may be achieved by controlling the surface area of the skin exposed to the drug, as by determining the area of each patch and the number of patches applied to the skin.

In a further data set the test system is human cancer xenografts. The settings on record: intraperitoneal injection, nude mice; cited from earlier work.

For the molecule `CN(C)C=O` [DMF, N,N'-dimethylformamide], the Cmax (as a rule, the peak of the concentration-time curve) in data set [1] (3750 mg, Patient 6, two patches once weekly, 6 hours, average weekly dose 3.75 g) is 67 µg/mL; in data set [1] (4600 mg, Patient 7, 1 patch, 4 hours, average weekly dose 4.60 g), 100 µg/mL; in data set [1] (6110 mg, Patient 3, two patches once a week, 8 hours, average weekly dose 6.11 g), 75 µg/mL; in data set [1] (6240 mg, Patient 8, two patches once weekly, 8 hours, average weekly dose 6.24 g) it was 130 µg/mL; in data set [1] (7120 mg, Patient 2, one patch per week, 8 hours, average weekly dose 7.12 g) it was 125 µg/mL; in data set [1] (7330 mg, Patient 4, two patches once weekly, 8 hours, average weekly dose 7.33 g), 90 µg/mL. Besides, the Cmax in data set [1] (8250 mg, Patient 5, two patches weekly, 8 hours, average weekly dose 8.25 g) turned out to be 110 µg/mL; in data set [1] (8970 mg, Patient 1, two patches once a week, 8 hours, average weekly dose 8.97 g), 121 µg/mL. In addition, the “maximum elevation of liver enzymes” value in data set [2] (four patients with transient elevation) is listed as “three”. Also, in data set [2] (most patients, after removal of the patches), the “local skin irritation at the area of application” value is “mild local skin irritation”. Also, the “appearance of skin at the application site” value in data set [2] (most patients, probably due to intense hydration under the patch) is given as “maculopapular appearance”. Also, the nausea result is given as “mild transient nausea” in data set [2] (most patients, usually on day three after treatment) and “moderate transient nausea” in data set [2] (one patient). For the same molecule, the “patients with transient elevation of liver enzymes” value in data set [2] (of 8 patients, in most cases returned to pre-treatment levels before next dose) is on record as “Four”. In addition, the blistering entry in data set [2] (one case, resolved within 24 hours) is “slight blistering”. In data set [3], the absorption rate entry was “about 1.2 g of DMF per hour”. Moreover, the “growth of human cancer xenografts” value with human cancer xenografts is recorded as “slow the growth of certain human cancer xenografts”.
